Assays:
[1] = molecular target: T1, Phytoene desaturase (OsPDS-His6) (Oryza sativa, UniProt A2XDA1, R300S); experiment: liposome-based desaturase assay with purified mutant, DPQ x NFZ matrix, competitive inhibition fit; type: biochemical
T1 construct: gene PDS1

[2] = molecular target: T2, Phytoene desaturase (OsPDS-His6) (Oryza sativa, UniProt A2XDA1); experiment: liposome-based desaturase assay with purified enzyme, competitive inhibition fit against DPQ, HPLC; type: biochemical
T2 construct: gene PDS1
T2 sequence (A2XDA1 88-578): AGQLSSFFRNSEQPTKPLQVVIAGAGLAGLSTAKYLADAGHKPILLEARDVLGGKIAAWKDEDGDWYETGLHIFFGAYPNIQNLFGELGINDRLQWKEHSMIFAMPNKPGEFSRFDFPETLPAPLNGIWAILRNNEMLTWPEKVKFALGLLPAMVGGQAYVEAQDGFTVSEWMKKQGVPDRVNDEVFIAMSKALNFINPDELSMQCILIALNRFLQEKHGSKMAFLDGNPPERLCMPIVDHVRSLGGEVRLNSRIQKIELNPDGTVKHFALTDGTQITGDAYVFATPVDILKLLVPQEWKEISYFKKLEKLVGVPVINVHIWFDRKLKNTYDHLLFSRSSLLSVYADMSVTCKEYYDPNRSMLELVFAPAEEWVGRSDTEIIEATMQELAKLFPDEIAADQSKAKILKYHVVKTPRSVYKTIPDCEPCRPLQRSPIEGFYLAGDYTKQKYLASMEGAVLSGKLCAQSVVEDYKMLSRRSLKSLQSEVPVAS

T1 sequence (A2XDA1 88-578 R300S): as the sequence (A2XDA1 88-578) above, with R213S counted along it

`CNc1cnn(-c2cccc(C(F)(F)F)c2)c(=O)c1Cl` [NFZ, norflurazon] showed a Ki [1] of 1.11 ± 0.36 mM and a Ki [2] of 230 ± 30 µM.

Source: paper PMC5703498, “Plant-type phytoene desaturase: Functional evaluation of structural implications” (PLoS ONE, 2017)
